Among the data in ChEMBL document CHEMBL1158448, “Synthesis and antinociceptive activity of pyrazolyl isoxazolines and pyrazolyl isoxazoles” (2009) are Activity values, retold here.

Test [1] has as its system Mus musculus. Put plainly: Antinociceptive activity in Swiss albino mouse assessed as protection against acetic acid-induced abdominal constriction at 100 mg/kg, po measured for 10 mins after 5 mins of acetic acid challenge relative to control. The format is functional, Abdomen.
Test [2] deals with Rattus norvegicus. As to the kind of experiment: Antinociceptive activity in Wistar albino rat assessed as latency in reaction time required for thermal stimulus-induced tail flicking at 5 mg/kg, po after 180 mins by analgesiometric analysis (RVb=3.16 +/- 0.16 seconds). It is filed as functional.
The subject of test [3] is Rattus norvegicus. Put plainly: Antinociceptive activity in Wistar albino rat assessed as latency in reaction time required for thermal stimulus-induced tail flicking at 5 mg/kg, po after 60 mins by analgesiometric analysis (RVb=3.16 +/- 0.16 seconds). The format is functional.
Test [4] concerns Rattus norvegicus. As to the kind of experiment: Antinociceptive activity in Wistar albino rat assessed as latency in reaction time required for thermal stimulus-induced tail flicking at 5 mg/kg, po after 30 mins by analgesiometric analysis (RVb=3.33 +/- 0.21 seconds). It is filed as functional.
Test [5] deals with Rattus norvegicus. As to the kind of experiment: Antinociceptive activity in Wistar albino rat assessed as latency in reaction time required for thermal stimulus-induced tail flicking at 5 mg/kg, po after 120 mins by analgesiometric analysis (RVb=3.33 +/- 0.21 seconds). The format is functional.
The test system of test [6] is Rattus norvegicus. Put plainly: Antinociceptive activity in Wistar albino rat assessed as latency in reaction time required for thermal stimulus-induced tail flicking at 30 mg/kg, po after 60 mins by analgesiometric analysis (RVb=3.16 +/- 0.16 seconds). The format is functional.
The subject of test [7] is Rattus norvegicus. As to the kind of experiment: Antinociceptive activity in Wistar albino rat assessed as latency in reaction time required for thermal stimulus-induced tail flicking at 15 mg/kg, po after 120 mins by analgesiometric analysis (RVb=3.33 +/- 0.21 seconds). It is filed as functional.
Test [8] relates to Mus musculus. Put plainly: Antinociceptive activity in Swiss albino mouse assessed as protection against acetic acid-induced abdominal constriction at 30 mg/kg, po measured for 10 mins after 5 mins of acetic acid challenge relative to control. The format is functional, Abdomen.
In test [9] the test system is Mus musculus. As to the kind of experiment: Antinociceptive activity in Swiss albino mouse assessed as protection against acetic acid-induced abdominal constriction at 15 mg/kg, po measured for 10 mins after 5 mins of acetic acid challenge relative to control. It is filed as functional, Abdomen.
The test system of test [10] is Rattus norvegicus. As to the kind of experiment: Antinociceptive activity in Wistar albino rat assessed as latency in reaction time required for thermal stimulus-induced tail flicking at 30 mg/kg, po after 30 mins by analgesiometric analysis (RVb=3.33 +/- 0.21 seconds). It is filed as functional.
The subject of test [11] is Rattus norvegicus. As to the kind of experiment: Antinociceptive activity in Wistar albino rat assessed as latency in reaction time required for thermal stimulus-induced tail flicking at 30 mg/kg, po after 120 mins by analgesiometric analysis (RVb=3.33 +/- 0.21 seconds). It is filed as functional.
For test [12], the system named is Rattus norvegicus. As to the kind of experiment: Antinociceptive activity in Wistar albino rat assessed as latency in reaction time required for thermal stimulus-induced tail flicking at 15 mg/kg, po after 60 mins by analgesiometric analysis (RVb=3.16 +/- 0.16 seconds). It is filed as functional.
The subject of test [13] is Rattus norvegicus. As to the kind of experiment: Antinociceptive activity in Wistar albino rat assessed as latency in reaction time required for thermal stimulus-induced tail flicking at 15 mg/kg, po after 180 mins by analgesiometric analysis (RVb=3.16 +/- 0.16 seconds). It is filed as functional.
Test [14] deals with Rattus norvegicus. As to the kind of experiment: Antinociceptive activity in Wistar albino rat assessed as latency in reaction time required for thermal stimulus-induced tail flicking at 15 mg/kg, po after 30 mins by analgesiometric analysis (RVb=3.33 +/- 0.21 seconds). The format is functional.
In test [15] the test system is Rattus norvegicus. As to the kind of experiment: Antinociceptive activity in Wistar albino rat assessed as latency in reaction time required for thermal stimulus-induced tail flicking at 30 mg/kg, po after 180 mins by analgesiometric analysis (RVb=3.16 +/- 0.16 seconds). It is filed as functional.

As for `CC(=O)Oc1ccccc1C(=O)O` [ASPIRIN], the Activity with Mus musculus [1] is recorded as 62.35%.

Consider `CC(C)=CCN1CC[C@]2(C)c3cc(O)ccc3C[C@H]1[C@H]2C` [(+)-PENTAZOCINE], for which the Activity came out at 8 s in the test on Rattus norvegicus [2], 9.33 s in the test with Rattus norvegicus [3], 9.16 s with Rattus norvegicus [4] and 9.3 s in the test on Rattus norvegicus [5].

With `Clc1ccc(-c2nn(-c3ccccc3)cc2-c2cc(-c3ccccc3)on2)cc1`, the Activity is given as 6.83 s in the test on Rattus norvegicus [6]; 4 s with Rattus norvegicus [7]; 49.04% in the test on Mus musculus [8]; 1.58% in the test on Mus musculus [9]; 3.83 s in the test on Rattus norvegicus [10]; 6.6 s with Rattus norvegicus [11]. The Activity is reported as 4.16 s with Rattus norvegicus [12], 3.83 s in the test on Rattus norvegicus [13], 3.16 s with Rattus norvegicus [14] and 6.16 s in the test on Rattus norvegicus [15].

In the case of `CN1C(=O)C2ON=C(c3cn(-c4ccccc4)nc3-c3ccc(Br)cc3)C2C1=O` (stereo not given), the Activity with Rattus norvegicus [6] came to 7.16 s; in the test on Rattus norvegicus [7], 3.83 s; in the test on Mus musculus [8], 40.4%; in the test on Mus musculus [9], 9.81%; in the test on Rattus norvegicus [10] it was 3.33 s; in the test on Rattus norvegicus [11], 7 s. In addition, the Activity with Rattus norvegicus [12] is given as 3.83 s; in the test on Rattus norvegicus [13], 3.33 s; in the test with Rattus norvegicus [14], 3.16 s; in the test with Rattus norvegicus [15], 6.5 s.
